# Literature values as cited in patent publication US20100008998A1, “SUBMICRON NANOPARTICLE OF POORLY WATER SOLUBLE CAMPTOTHECIN DERIVATIVES AND PROCESS FOR PREPARATION THEREOF” (SAMYANG CORPORATION, priority 2006, published 2010).
# Read-outs that look alike come from different tables or passages of the source.
# Key:
# [1] = in the human body
# topoisomerase I = target: T1, topoisomerase I (Homo sapiens, UniProt P11387)
# T1 sequence (P11387 1-765): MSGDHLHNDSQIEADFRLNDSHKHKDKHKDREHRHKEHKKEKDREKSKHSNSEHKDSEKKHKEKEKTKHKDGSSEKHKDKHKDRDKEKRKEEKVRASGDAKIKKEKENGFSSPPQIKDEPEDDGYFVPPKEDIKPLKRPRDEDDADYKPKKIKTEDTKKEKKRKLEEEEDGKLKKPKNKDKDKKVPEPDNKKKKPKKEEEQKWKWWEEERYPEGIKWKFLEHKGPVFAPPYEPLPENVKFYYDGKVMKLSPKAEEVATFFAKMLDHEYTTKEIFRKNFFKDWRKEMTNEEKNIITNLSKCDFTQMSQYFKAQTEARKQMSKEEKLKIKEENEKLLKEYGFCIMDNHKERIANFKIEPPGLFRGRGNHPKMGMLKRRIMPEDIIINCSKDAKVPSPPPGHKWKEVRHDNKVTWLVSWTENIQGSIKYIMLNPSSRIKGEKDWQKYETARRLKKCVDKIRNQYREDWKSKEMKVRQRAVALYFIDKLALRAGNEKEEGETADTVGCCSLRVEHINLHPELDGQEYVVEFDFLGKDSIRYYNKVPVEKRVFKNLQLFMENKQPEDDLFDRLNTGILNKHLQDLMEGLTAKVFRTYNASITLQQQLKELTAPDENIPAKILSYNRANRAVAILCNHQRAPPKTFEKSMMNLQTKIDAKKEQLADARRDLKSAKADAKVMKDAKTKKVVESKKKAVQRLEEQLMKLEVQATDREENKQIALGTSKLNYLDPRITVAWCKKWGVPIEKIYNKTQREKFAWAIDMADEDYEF
# [2] = not given; remark: listed apart in the source
Compound,conversion rate of CPT-11 into the active SN-38 [1],better in in vitro cytotoxicity compared to CPT-11,better in suppressing the activity of topoisomerase I compared to CPT-11 (topoisomerase I),water solubility [2],water solubility ([2]; active lactone form),can be dissolved in water in the amounts of ([2]; carboxy anion form)
CCc1c2c(nc3ccc(OC(=O)N4CCC(N5CCCCC5)CC4)cc13)-c1cc3c(c(=O)n1C2)COC(=O)[C@]3(O)CC [CPT-11],≤ 10%,,,,,
"CCc1c2c(nc3ccc(O)cc13)-c1cc3c(c(=O)n1C2)COC(=O)[C@]3(O)CC [SN-38, 7-Ethyl-10-hydroxycamptothecin]",,"≥ 2,000 times","≥ 1,000 times",≤ 10 µg/mL,≤ 10 µg/mL,≥ 4 mg/mL
